Results: article PMC11900122, “Study of Intracellular Peptides of the Central Nervous System of Zebrafish (Danio rerio) in a Parkinson’s Disease Model” (International Journal of Molecular Sciences, 2025)

Tested on: Zebrafish (Danio rerio) larvae
Experiment: Behavioral assay in 6-OHDA zebrafish larvae model
Format: in vivo
Details: larvae 4 dpf, 750 µM 6-OHDA 24 h, then peptide 50 µM for 24 h; filmed 5 min, ToxTrac; 12 embryos per group
Description: Wild-type adult D. rerio (zebrafish) were obtained from a licensed commercial distributor. They were maintained on a 14 h light–10 h dark photoperiod in fresh filtered water at 28 °C and fed twice a day with dry food and once a day with Artemia sp. Reproduction was performed in individual fish tanks in a 1 male–1 female proportion, with pebbles and artificial plants. Eggs were collected, selected and maintained in an incubator at 28 °C until 4 days post fertilization (dpf). This study followed the guidelines of the National Council for Animal Experimentation Control (CONCEA) and was approved by the Ethics Commission for Animal Use (CEUA) at the Bioscience Institute of São Paulo State University (São Vicente, Brazil: Protocol Number 06/2023, approved on 22 June 2023).
Zebrafish (Danio rerio) larvae at 4 dpf were transferred to a 96-well plate, a single larva per well. Larvae were treated with 750 µM 6-OHDA in system water for 24 h in an incubator at 28 °C. Then, solution was changed to system water with each peptide in different concentrations—10 µM, 20 µM, 30 µM, 40 µM and 50 µM [47]—and larvae were incubated at 28 °C for another 24 h. Finally, each larva was filmed for 5 min, and videos were processed by an automated tracking system (ToxTrac Version 2.96). Analysis parameters were mean speed (mm/s) and total distance swum (mm) (Figure 8). Statistical analysis was performed using a one-way analysis of variance (ANOVA) test followed by Dunnett’s test for multiple comparisons. Data were statistically analyzed using GraphPad Prism Software (GraphPad Software Inc., San Diego, CA, USA).
Figure 8 Zebrafish larva model. Zebrafish larvae were immersed in 6-OHDA 750 µM for 24 h, then in each peptide at 10 µM, 20 µM, 30 µM, 40 µM or 50 µM for 24 h. Videos were recorded for 5 min and then analyzed by software (ToxTrac Version 2.96). Parameters were mean speed and distance traveled.

Row | Sequence | Mean speed, compared to the control group | Total distance swum, compared to the control group
1 | GVGFATRQV [p-FABP7] | statistically equal results to the control group | statistically equal results to the control group
2 | TIEQEKQAGSS [p-Tbeta4, […], derived from thymosin beta-4] | statistically equal results to the control group | statistically equal results to the control group
3 | TLDLNEMDYIQRGGPE [p-MRPS36, peptide derived from mitochondrial ribosomal protein S36] | statistically equal results to the control group | statistically equal results to the control group
